Laboratory results as given in ChEMBL document CHEMBL4828721, “Substituted dienes prepared from betulinic acid - Synthesis, cytotoxicity, mechanism of action, and pharmacological parameters” (Eur J Med Chem, 2021).

System: CCRF-CEM
Test: Cytotoxicity against human CCRF-CEM cells assessed as reduction in cell viability measured after 72 hrs by MTS assay
Assay type: functional, cell-based
Details: not given

In order of rising IC50:
1. C=C(/C=C/c1ccncc1)[C@@H]1CC[C@]2(C(=O)O)CC[C@]3(C)[C@H](CC[C@@H]4[C@@]5(C)CC[C@H](O)C(C)(C)[C@@H]5CC[C@]43C)[C@@H]12  5.9 µM
2. C=C(/C=C/c1ccccc1F)[C@@H]1CC[C@]2(C(=O)O)CC[C@]3(C)[C@H](CC[C@@H]4[C@@]5(C)CC[C@H](O)C(C)(C)[C@@H]5CC[C@]43C)[C@@H]12  15.4 µM
3. C=C(/C=C/c1ccccn1)[C@@H]1CC[C@]2(C(=O)O)CC[C@]3(C)[C@H](CC[C@@H]4[C@@]5(C)CC[C@H](O)C(C)(C)[C@@H]5CC[C@]43C)[C@@H]12  19.7 µM

System: CEM-DNR
Test: Cytotoxicity against daunorubicin resistant human CEM-DNR cells assessed as reduction in cell viability measured after 72 hrs by MTS assay
Assay type: functional, cell-based
Details: not given

In order of falling IC50:
1. C=C(/C=C/c1ccccn1)[C@@H]1CC[C@]2(C(=O)O)CC[C@]3(C)[C@H](CC[C@@H]4[C@@]5(C)CC[C@H](O)C(C)(C)[C@@H]5CC[C@]43C)[C@@H]12  27.7 µM
2. C=C(/C=C/c1ccccc1F)[C@@H]1CC[C@]2(C(=O)O)CC[C@]3(C)[C@H](CC[C@@H]4[C@@]5(C)CC[C@H](O)C(C)(C)[C@@H]5CC[C@]43C)[C@@H]12  23.2 µM
3. C=C(/C=C/c1ccncc1)[C@@H]1CC[C@]2(C(=O)O)CC[C@]3(C)[C@H](CC[C@@H]4[C@@]5(C)CC[C@H](O)C(C)(C)[C@@H]5CC[C@]43C)[C@@H]12  20.5 µM

System: HCT-116
Test: Cytotoxicity against human HCT-116 cells assessed as reduction in cell viability measured after 72 hrs by MTS assay
Assay type: functional, cell-based
Details: HCT-116, 72 h

First: C=C(/C=C/c1ccccc1F)[C@@H]1CC[C@]2(C(=O)O)CC[C@]3(C)[C@H](CC[C@@H]4[C@@]5(C)CC[C@H](O)C(C)(C)[C@@H]5CC[C@]43C)[C@@H]12
Second: C=C(/C=C/c1ccccn1)[C@@H]1CC[C@]2(C(=O)O)CC[C@]3(C)[C@H](CC[C@@H]4[C@@]5(C)CC[C@H](O)C(C)(C)[C@@H]5CC[C@]43C)[C@@H]12
The IC50 of the first is lower: 24.5 µM for the first, > 50 µM for the second. The first is the more potent here.

Work on `C=C(/C=C/c1ccncc1)[C@@H]1CC[C@]2(C(=O)O)CC[C@]3(C)[C@H](CC[C@@H]4[C@@]5(C)CC[C@H](O)C(C)(C)[C@@H]5CC[C@]43C)[C@@H]12` yielded an IC50 of 35 µM.

System: not listed separately
Test: Cytotoxicity against human HCT116 p53-null cells assessed as reduction in cell viability measured after 72 hrs by MTS assay
Assay type: functional, cell-based
Details: not given

Going from `C=C(/C=C/c1ccccc1F)[C@@H]1CC[C@]2(C(=O)O)CC[C@]3(C)[C@H](CC[C@@H]4[C@@]5(C)CC[C@H](O)C(C)(C)[C@@H]5CC[C@]43C)[C@@H]12` to `C=C(/C=C/c1ccccn1)[C@@H]1CC[C@]2(C(=O)O)CC[C@]3(C)[C@H](CC[C@@H]4[C@@]5(C)CC[C@H](O)C(C)(C)[C@@H]5CC[C@]43C)[C@@H]12`, the IC50 rises from 22.6 µM to > 50 µM. The first is the more potent here.

With `C=C(/C=C/c1ccncc1)[C@@H]1CC[C@]2(C(=O)O)CC[C@]3(C)[C@H](CC[C@@H]4[C@@]5(C)CC[C@H](O)C(C)(C)[C@@H]5CC[C@]43C)[C@@H]12` the IC50 was 30.6 µM.

System: K562
Test: Cytotoxicity against human K562 cells assessed as reduction in cell viability measured after 72 hrs by MTS assay
Assay type: functional, cell-based
Details: K562, 72 h

Compared with `C=C(/C=C/c1ccccc1F)[C@@H]1CC[C@]2(C(=O)O)CC[C@]3(C)[C@H](CC[C@@H]4[C@@]5(C)CC[C@H](O)C(C)(C)[C@@H]5CC[C@]43C)[C@@H]12`, `C=C(/C=C/c1ccccn1)[C@@H]1CC[C@]2(C(=O)O)CC[C@]3(C)[C@H](CC[C@@H]4[C@@]5(C)CC[C@H](O)C(C)(C)[C@@H]5CC[C@]43C)[C@@H]12` is higher in IC50: 21.8 µM for the first, > 50 µM for the second.

Compound `C=C(/C=C/c1ccncc1)[C@@H]1CC[C@]2(C(=O)O)CC[C@]3(C)[C@H](CC[C@@H]4[C@@]5(C)CC[C@H](O)C(C)(C)[C@@H]5CC[C@]43C)[C@@H]12` has an IC50 of 43.4 µM.

System: not listed separately
Test: Cytotoxicity against paclitaxel resistant human K562-Tax cells assessed as reduction in cell viability measured after 72 hrs by MTS assay
Assay type: functional, cell-based
Details: not given

In order of falling IC50:
1. C=C(/C=C/c1ccccn1)[C@@H]1CC[C@]2(C(=O)O)CC[C@]3(C)[C@H](CC[C@@H]4[C@@]5(C)CC[C@H](O)C(C)(C)[C@@H]5CC[C@]43C)[C@@H]12  29.2 µM
2. C=C(/C=C/c1ccccc1F)[C@@H]1CC[C@]2(C(=O)O)CC[C@]3(C)[C@H](CC[C@@H]4[C@@]5(C)CC[C@H](O)C(C)(C)[C@@H]5CC[C@]43C)[C@@H]12  25.1 µM
3. C=C(/C=C/c1ccncc1)[C@@H]1CC[C@]2(C(=O)O)CC[C@]3(C)[C@H](CC[C@@H]4[C@@]5(C)CC[C@H](O)C(C)(C)[C@@H]5CC[C@]43C)[C@@H]12  20.6 µM

System: A549
Test: Cytotoxicity against human A549 cells assessed as reduction in cell viability measured after 72 hrs by MTS assay
Assay type: functional, cell-based
Details: A549, 72 h

Compared with `C=C(/C=C/c1ccccc1F)[C@@H]1CC[C@]2(C(=O)O)CC[C@]3(C)[C@H](CC[C@@H]4[C@@]5(C)CC[C@H](O)C(C)(C)[C@@H]5CC[C@]43C)[C@@H]12`, `C=C(/C=C/c1ccccn1)[C@@H]1CC[C@]2(C(=O)O)CC[C@]3(C)[C@H](CC[C@@H]4[C@@]5(C)CC[C@H](O)C(C)(C)[C@@H]5CC[C@]43C)[C@@H]12` is higher in IC50: 29.7 µM for the first, > 50 µM for the second. The first is the more potent here.

For `C=C(/C=C/c1ccncc1)[C@@H]1CC[C@]2(C(=O)O)CC[C@]3(C)[C@H](CC[C@@H]4[C@@]5(C)CC[C@H](O)C(C)(C)[C@@H]5CC[C@]43C)[C@@H]12`, the IC50 was 46 µM.

System: U2OS
Test: Cytotoxicity against human U2OS cells assessed as reduction in cell viability measured after 72 hrs by MTS assay
Assay type: functional, cell-based
Details: not given

Going from `C=C(/C=C/c1ccccc1F)[C@@H]1CC[C@]2(C(=O)O)CC[C@]3(C)[C@H](CC[C@@H]4[C@@]5(C)CC[C@H](O)C(C)(C)[C@@H]5CC[C@]43C)[C@@H]12` to `C=C(/C=C/c1ccccn1)[C@@H]1CC[C@]2(C(=O)O)CC[C@]3(C)[C@H](CC[C@@H]4[C@@]5(C)CC[C@H](O)C(C)(C)[C@@H]5CC[C@]43C)[C@@H]12`, the IC50 rises from 27.7 µM to > 50 µM.

With `C=C(/C=C/c1ccncc1)[C@@H]1CC[C@]2(C(=O)O)CC[C@]3(C)[C@H](CC[C@@H]4[C@@]5(C)CC[C@H](O)C(C)(C)[C@@H]5CC[C@]43C)[C@@H]12` the IC50 was 29.7 µM.

System: BJ
Test: Cytotoxicity against human BJ cells assessed as reduction in cell viability measured after 72 hrs by MTS assay
Assay type: cell-based
Details: not given

First: C=C(/C=C/c1ccccc1F)[C@@H]1CC[C@]2(C(=O)O)CC[C@]3(C)[C@H](CC[C@@H]4[C@@]5(C)CC[C@H](O)C(C)(C)[C@@H]5CC[C@]43C)[C@@H]12
Second: C=C(/C=C/c1ccccn1)[C@@H]1CC[C@]2(C(=O)O)CC[C@]3(C)[C@H](CC[C@@H]4[C@@]5(C)CC[C@H](O)C(C)(C)[C@@H]5CC[C@]43C)[C@@H]12
The IC50 of the first is lower: 42.1 µM for the first, > 50 µM for the second. The first is the more potent here.

In the case of `C=C(/C=C/c1ccncc1)[C@@H]1CC[C@]2(C(=O)O)CC[C@]3(C)[C@H](CC[C@@H]4[C@@]5(C)CC[C@H](O)C(C)(C)[C@@H]5CC[C@]43C)[C@@H]12`, the IC50 is reported as > 50 µM.

System: MRC5
Test: Cytotoxicity against human MRC5 cells assessed as reduction in cell viability measured after 72 hrs by MTS assay
Assay type: cell-based
Details: MRC5, 72 h

Going from `C=C(/C=C/c1ccccc1F)[C@@H]1CC[C@]2(C(=O)O)CC[C@]3(C)[C@H](CC[C@@H]4[C@@]5(C)CC[C@H](O)C(C)(C)[C@@H]5CC[C@]43C)[C@@H]12` to `C=C(/C=C/c1ccccn1)[C@@H]1CC[C@]2(C(=O)O)CC[C@]3(C)[C@H](CC[C@@H]4[C@@]5(C)CC[C@H](O)C(C)(C)[C@@H]5CC[C@]43C)[C@@H]12`, the IC50 rises from 31.7 µM to > 50 µM. The first is the more potent here.

In the case of `C=C(/C=C/c1ccncc1)[C@@H]1CC[C@]2(C(=O)O)CC[C@]3(C)[C@H](CC[C@@H]4[C@@]5(C)CC[C@H](O)C(C)(C)[C@@H]5CC[C@]43C)[C@@H]12`, the IC50 is reported as > 50 µM.
